Source: PMC4279406, “Simultaneous targeting of PI3Kδ and a PI3Kδ-dependent MEK1/2-Erk1/2 pathway for therapy in pediatric B-cell acute lymphoblastic leukemia” (Oncotarget, 2014)

Columns and labels:
[1] = system: PI3Kγ (MCP-1-stimulated THP-1 monocytes); assay: MCP-1-stimulated Akt phosphorylation in THP-1 cells; type: cell-based; settings: MCP-1 100 ng/ml
Protocol: In fibroblasts, signals from the insulin-like growth factor 1 (IGF-1) receptor are mediated by PI3Kα, while lysophosphatidic acid (LPA) stimulates G-protein coupled receptor (GPCR) signals via PI3Kβ[26]. After being pre-incubated with X-370, murine embryonic fibroblasts cultured in serum-free medium were stimulated with IGF-1 or LPA. […] Either PI3Kδ or PI3Kγ can be activated in THP-1 monocytes dependent on the stimulating ligand, among which macrophage colony stimulating factor (M-CSF/CSF-1) activates RTK-coupled PI3Kδ, while monocyte chemoattractant protein-1 (MCP-1) activates PI3Kγ [24]. Accordingly, THP-1 cells cultured in serum-free medium were stimulated with MCP-1 or M-CSF in the presence of X-370 and phosphorylated Akt was measured.
Cell lysates were probed with indicated antibodies. The IC50 values were calculated based on relative band intensity measured with ImageQuant™ TL (GE Healthcare Life Sciences, Piscataway, NJ) (B). Data shown are mean values from three independent experiments. (C, D, E, F) X-370 blocked stimuli-triggered PI3Kδ activation. MEF cells and THP-1 were starved in serum-free medium for 12 h or 4 h respectively and X-370 were added for an additional 1 h treatment following stimulation of IGF-1 at 100 ng/ml for MEF cells (C), LPA at 10 μM for MEF cells (D), MCP-1 at 100ng/ml for THP-1 (E) and M-CSF at 50 ng/ml for THP-1 (F). […]

mTOR/FKBP12 = biological target: T1, mTOR/FKBP12 (Homo sapiens, UniProt P42345); assay: KinaseProfiler protein kinase activity; type: biochemical; settings: 10 μM X-370
T1 construct: purchased Millipore KinaseProfiler
Protocol: (§1) In vitro kinase profile assays were analyzed by the Kinase Profiler Service (Millipore, United Kingdom) following its guidelines. A GST-tagged human p110δ and regulatory full-length p85 were co-expressed in insect cell Sf9. Recombinant protein was extracted by affinity purification. The PI3K kinase activity was determined in the increasing concentration of ATP and X-370 with PI3-Kinase HTRF™ Assay kit (Millipore) as described previously. […]
(§2) Table S1: Inhibitory activity of X-370 against protein kinases
(§3) kinome at 10 μM. The relative kianse activity left in the presence of 10 μM were shown (Mi llipore
(§4) Kinase activity (% of control) Kinase activity (% of control) Kinase activity (% of control)
(§5) CDK1/cyclinB 97 Lck activated 89 Ret 125

IKK α = biological target: T2, IKK α (Homo sapiens, UniProt O15111); assay: KinaseProfiler protein kinase activity; type: biochemical; settings: 10 μM X-370
T2 construct: purchased Millipore KinaseProfiler
Protocol: as §1, §2, §3, §4, §5

FAK = biological target: T3, FAK (Homo sapiens, UniProt Q05397); assay: KinaseProfiler protein kinase activity; type: biochemical; settings: 10 μM X-370
T3 construct: purchased Millipore KinaseProfiler
Protocol: as §1, §2, §3, §4, §5

PKC μ = biological target: T4, PKC μ (Homo sapiens, UniProt Q15139); assay: KinaseProfiler protein kinase activity; type: biochemical; settings: 10 μM X-370
T4 construct: purchased Millipore KinaseProfiler
Protocol: as §1, §2, §3, §4, §5

ALK = biological target: T5, ALK (Homo sapiens, UniProt Q9UM73); assay: KinaseProfiler protein kinase activity; type: biochemical; settings: 10 μM X-370
T5 construct: purchased Millipore KinaseProfiler
Protocol: as §1, §2, §3, §4, §5

ASK1 = biological target: T6, ASK1 (Homo sapiens, UniProt Q99683); assay: KinaseProfiler protein kinase activity; type: biochemical; settings: 10 μM X-370
T6 construct: purchased Millipore KinaseProfiler
Protocol: as §1, §2, §3, §4, §5

mTOR = biological target: T7, mTOR (Homo sapiens, UniProt P42345); assay: KinaseProfiler protein kinase activity; type: biochemical; settings: 10 μM X-370
T7 construct: purchased Millipore KinaseProfiler
Protocol: as §1, §2, §3, §4, §5

EphA1 = biological target: T8, EphA1 (Homo sapiens, UniProt P21709); assay: KinaseProfiler protein kinase activity; type: biochemical; settings: 10 μM X-370
T8 construct: purchased Millipore KinaseProfiler
Protocol: as §1, §2, §3, §4, §5

IGF-1R, activated = biological target: T9, IGF-1R, activated (Homo sapiens, UniProt P08069); assay: KinaseProfiler protein kinase activity; type: biochemical; settings: 10 μM X-370
T9 construct: purchased Millipore KinaseProfiler
Protocol: as §1, §2, §3, §4, §5

CaMKI = biological target: T10, CaMKI (Homo sapiens, UniProt Q14012); assay: KinaseProfiler protein kinase activity; type: biochemical; settings: 10 μM X-370
T10 construct: purchased Millipore KinaseProfiler
Protocol: as §1, §2, §3, §4, §5

Tie2 = biological target: T11, Tie2 (Homo sapiens, UniProt Q02763); assay: KinaseProfiler protein kinase activity; type: biochemical; settings: 10 μM X-370
T11 construct: purchased Millipore KinaseProfiler
Protocol: as §1, §2, §3, §4, §5

SGK = biological target: T12, SGK (Homo sapiens, UniProt O00141); assay: KinaseProfiler protein kinase activity; type: biochemical; settings: 10 μM X-370
T12 construct: purchased Millipore KinaseProfiler
Protocol: as §1, §2, §3, §4, §5

Ron = biological target: T13, Ron (Homo sapiens, UniProt Q04912); assay: KinaseProfiler protein kinase activity; type: biochemical; settings: 10 μM X-370
T13 construct: purchased Millipore KinaseProfiler
Protocol: as §1, §2, §3, §4, §5

KDR = biological target: T14, KDR (Homo sapiens, UniProt P35968); assay: KinaseProfiler protein kinase activity; type: biochemical; settings: 10 μM X-370
T14 construct: purchased Millipore KinaseProfiler
Protocol: as §1, §2, §3, §4, §5

CHK1 = biological target: T15, CHK1 (Homo sapiens, UniProt O14757); assay: KinaseProfiler protein kinase activity; type: biochemical; settings: 10 μM X-370
T15 construct: purchased Millipore KinaseProfiler
Protocol: as §1, §2, §3, §4, §5

Src(1-530) = biological target: T16, Src(1-530) (Homo sapiens, UniProt P12931); assay: KinaseProfiler protein kinase activity; type: biochemical; settings: 10 μM X-370
T16 construct: purchased Millipore KinaseProfiler
Protocol: as §1, §2, §3, §4, §5

Lck activated = biological target: T17, Lck activated (Homo sapiens, UniProt P06239); assay: KinaseProfiler protein kinase activity; type: biochemical; settings: 10 μM X-370
T17 construct: purchased Millipore KinaseProfiler
Protocol: as §1, §2, §3, §4, §5

AMPK α1 = biological target: T18, AMPK α1 (Homo sapiens, UniProt Q13131); assay: KinaseProfiler protein kinase activity; type: biochemical; settings: 10 μM X-370
T18 construct: purchased Millipore KinaseProfiler
Protocol: as §1, §2, §3, §4, §5

Itk = biological target: T19, Itk (Homo sapiens, UniProt Q08881); assay: KinaseProfiler protein kinase activity; type: biochemical; settings: 10 μM X-370
T19 construct: purchased Millipore KinaseProfiler
Protocol: as §1, §2, §3, §4, §5

DYRK2 = biological target: T20, DYRK2 (Homo sapiens, UniProt Q92630); assay: KinaseProfiler protein kinase activity; type: biochemical; settings: 10 μM X-370
T20 construct: purchased Millipore KinaseProfiler
Protocol: as §1, §2, §3, §4, §5

T11 sequence (Q02763 23-1124): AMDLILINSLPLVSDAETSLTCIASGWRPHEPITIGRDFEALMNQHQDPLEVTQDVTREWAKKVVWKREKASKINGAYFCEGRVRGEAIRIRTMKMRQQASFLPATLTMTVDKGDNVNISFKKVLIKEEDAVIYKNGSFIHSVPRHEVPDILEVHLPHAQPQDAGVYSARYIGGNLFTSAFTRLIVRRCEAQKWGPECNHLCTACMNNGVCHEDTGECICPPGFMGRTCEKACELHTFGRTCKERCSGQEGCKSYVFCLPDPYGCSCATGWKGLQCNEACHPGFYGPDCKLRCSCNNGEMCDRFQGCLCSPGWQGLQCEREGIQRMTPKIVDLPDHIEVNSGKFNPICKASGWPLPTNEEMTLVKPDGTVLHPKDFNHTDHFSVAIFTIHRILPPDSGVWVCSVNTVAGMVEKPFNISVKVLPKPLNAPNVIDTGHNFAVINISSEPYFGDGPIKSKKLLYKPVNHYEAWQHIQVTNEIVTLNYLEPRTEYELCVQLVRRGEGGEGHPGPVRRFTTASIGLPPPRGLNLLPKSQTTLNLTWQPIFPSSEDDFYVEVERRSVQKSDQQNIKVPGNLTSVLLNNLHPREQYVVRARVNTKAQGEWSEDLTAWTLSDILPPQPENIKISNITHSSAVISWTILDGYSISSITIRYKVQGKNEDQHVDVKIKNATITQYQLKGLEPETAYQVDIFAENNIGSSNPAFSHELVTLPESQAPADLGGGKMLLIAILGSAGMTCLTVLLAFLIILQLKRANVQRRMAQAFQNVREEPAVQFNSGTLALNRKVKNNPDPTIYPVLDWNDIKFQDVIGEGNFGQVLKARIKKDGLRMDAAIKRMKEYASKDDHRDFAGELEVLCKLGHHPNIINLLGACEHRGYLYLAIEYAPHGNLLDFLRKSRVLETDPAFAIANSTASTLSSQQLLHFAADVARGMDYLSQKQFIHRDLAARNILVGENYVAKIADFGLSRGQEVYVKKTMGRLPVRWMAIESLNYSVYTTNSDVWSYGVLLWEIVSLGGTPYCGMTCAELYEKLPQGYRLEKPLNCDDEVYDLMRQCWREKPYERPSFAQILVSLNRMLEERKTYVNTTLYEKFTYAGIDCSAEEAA
T14 sequence (P35968 20-1356): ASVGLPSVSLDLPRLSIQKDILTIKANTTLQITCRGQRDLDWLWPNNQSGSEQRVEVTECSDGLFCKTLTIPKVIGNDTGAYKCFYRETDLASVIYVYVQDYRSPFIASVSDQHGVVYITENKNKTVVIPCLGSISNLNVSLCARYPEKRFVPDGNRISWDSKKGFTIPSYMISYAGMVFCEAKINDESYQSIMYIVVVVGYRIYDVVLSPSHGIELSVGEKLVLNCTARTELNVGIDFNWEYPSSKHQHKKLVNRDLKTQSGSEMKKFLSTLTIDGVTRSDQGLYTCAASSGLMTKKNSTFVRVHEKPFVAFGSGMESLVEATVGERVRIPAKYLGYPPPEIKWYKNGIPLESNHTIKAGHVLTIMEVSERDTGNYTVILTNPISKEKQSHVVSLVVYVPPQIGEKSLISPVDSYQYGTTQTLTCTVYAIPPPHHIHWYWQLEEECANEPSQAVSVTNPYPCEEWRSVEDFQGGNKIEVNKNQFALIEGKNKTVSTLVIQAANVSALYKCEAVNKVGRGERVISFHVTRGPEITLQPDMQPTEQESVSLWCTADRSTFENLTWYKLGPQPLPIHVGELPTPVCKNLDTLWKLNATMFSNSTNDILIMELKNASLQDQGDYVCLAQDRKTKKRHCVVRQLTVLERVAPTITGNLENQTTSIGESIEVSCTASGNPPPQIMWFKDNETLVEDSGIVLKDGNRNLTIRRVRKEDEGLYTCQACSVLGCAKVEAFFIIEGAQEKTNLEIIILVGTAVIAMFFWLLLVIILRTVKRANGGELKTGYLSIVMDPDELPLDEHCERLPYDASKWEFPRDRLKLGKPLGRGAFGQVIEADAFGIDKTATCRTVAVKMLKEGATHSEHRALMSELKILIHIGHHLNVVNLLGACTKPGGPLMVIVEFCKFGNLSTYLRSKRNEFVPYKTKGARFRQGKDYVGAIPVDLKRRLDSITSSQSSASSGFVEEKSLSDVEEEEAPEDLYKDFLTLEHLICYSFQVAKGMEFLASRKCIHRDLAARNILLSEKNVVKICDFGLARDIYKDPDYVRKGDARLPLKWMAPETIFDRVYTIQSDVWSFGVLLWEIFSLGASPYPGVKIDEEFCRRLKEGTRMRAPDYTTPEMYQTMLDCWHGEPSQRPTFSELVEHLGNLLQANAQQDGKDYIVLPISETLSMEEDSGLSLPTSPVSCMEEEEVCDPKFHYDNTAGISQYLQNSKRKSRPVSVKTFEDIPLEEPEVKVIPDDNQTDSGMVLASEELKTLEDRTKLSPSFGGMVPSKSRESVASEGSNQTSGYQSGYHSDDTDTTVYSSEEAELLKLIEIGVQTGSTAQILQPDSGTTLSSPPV
T15 sequence (O14757 whole entry): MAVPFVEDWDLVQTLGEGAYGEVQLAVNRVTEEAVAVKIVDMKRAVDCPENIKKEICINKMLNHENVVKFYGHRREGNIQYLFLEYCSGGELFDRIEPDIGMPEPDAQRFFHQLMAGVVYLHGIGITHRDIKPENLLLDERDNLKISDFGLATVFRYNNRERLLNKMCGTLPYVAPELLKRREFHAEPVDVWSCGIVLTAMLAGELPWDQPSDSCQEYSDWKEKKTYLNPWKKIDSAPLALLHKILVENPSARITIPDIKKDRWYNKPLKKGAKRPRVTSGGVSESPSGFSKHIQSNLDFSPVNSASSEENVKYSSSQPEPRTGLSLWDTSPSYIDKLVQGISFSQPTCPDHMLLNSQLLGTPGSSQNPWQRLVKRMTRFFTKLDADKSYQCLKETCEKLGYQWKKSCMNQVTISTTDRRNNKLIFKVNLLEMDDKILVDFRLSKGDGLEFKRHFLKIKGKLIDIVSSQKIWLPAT
T19 sequence (Q08881 whole entry): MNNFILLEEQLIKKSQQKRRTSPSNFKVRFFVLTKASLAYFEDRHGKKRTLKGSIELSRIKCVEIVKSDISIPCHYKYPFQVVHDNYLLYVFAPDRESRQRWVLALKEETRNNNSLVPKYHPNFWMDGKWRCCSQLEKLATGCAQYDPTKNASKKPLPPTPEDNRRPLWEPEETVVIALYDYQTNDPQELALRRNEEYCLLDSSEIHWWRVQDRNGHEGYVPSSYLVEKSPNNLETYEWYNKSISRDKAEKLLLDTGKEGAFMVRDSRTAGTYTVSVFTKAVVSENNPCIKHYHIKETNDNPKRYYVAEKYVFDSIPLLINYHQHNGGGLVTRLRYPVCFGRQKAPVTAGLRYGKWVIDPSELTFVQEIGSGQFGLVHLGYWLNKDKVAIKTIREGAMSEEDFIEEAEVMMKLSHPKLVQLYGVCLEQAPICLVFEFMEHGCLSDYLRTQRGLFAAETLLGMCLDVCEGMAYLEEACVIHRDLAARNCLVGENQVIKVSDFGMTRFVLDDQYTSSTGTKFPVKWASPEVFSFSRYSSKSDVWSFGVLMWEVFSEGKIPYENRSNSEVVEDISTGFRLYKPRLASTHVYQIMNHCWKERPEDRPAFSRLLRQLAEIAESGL
T9 sequence (P08069 31-1367): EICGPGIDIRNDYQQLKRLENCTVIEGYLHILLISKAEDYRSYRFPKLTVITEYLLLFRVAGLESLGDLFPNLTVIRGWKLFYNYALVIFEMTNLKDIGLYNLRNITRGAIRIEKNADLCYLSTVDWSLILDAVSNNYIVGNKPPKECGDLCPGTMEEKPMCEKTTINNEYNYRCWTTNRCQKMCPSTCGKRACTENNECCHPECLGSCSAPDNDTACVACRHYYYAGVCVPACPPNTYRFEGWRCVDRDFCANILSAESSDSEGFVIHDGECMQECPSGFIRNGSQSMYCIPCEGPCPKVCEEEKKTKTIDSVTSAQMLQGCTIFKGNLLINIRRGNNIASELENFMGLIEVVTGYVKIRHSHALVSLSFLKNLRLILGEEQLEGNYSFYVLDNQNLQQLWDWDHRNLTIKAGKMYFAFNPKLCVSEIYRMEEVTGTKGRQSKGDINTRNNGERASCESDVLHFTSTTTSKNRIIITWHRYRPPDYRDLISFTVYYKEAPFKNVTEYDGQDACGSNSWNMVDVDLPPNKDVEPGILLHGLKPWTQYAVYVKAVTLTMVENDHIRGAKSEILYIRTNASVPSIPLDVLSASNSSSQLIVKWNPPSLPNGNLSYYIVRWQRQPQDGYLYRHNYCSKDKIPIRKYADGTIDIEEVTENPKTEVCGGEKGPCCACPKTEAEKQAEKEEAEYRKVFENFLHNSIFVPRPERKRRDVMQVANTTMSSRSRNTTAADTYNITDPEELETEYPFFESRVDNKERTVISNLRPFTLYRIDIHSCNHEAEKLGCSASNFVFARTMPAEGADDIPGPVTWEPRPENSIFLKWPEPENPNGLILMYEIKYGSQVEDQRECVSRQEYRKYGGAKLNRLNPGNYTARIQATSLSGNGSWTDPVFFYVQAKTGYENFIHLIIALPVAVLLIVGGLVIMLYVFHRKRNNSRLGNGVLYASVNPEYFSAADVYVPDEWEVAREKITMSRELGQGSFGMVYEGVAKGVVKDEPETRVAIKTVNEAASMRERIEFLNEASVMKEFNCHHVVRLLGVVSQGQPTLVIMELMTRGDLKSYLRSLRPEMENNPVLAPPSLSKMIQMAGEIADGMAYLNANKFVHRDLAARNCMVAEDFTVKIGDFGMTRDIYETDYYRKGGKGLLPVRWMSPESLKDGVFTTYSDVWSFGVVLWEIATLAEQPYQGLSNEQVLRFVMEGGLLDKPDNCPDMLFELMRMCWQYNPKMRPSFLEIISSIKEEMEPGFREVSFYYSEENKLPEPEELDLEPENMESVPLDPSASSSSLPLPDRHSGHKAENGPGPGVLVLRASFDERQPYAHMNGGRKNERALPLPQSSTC

O=C(N1CCCC1)N1CCC(n2cnc3c(-n4c(C(F)F)nc5ccccc54)nc(N4CCOCC4)nc32)CC1 [X-370]
MCP-1-stimulated Akt phosphorylation [1]: much less activity | Kinase activity (% of control) (mTOR/FKBP12): 48 % of control | Kinase activity (% of control) (IKK α): 95 % of control | Kinase activity (% of control) (FAK): 99 % of control | Kinase activity (% of control) (PKC μ): 98 % of control | Kinase activity (% of control) (ALK): 79 % of control | Kinase activity (% of control) (ASK1): 107 % of control | Kinase activity (% of control) (mTOR): 47 % of control | Kinase activity (% of control) (EphA1): 99 % of control | Kinase activity (% of control) (IGF-1R, activated): 120 % of control | Kinase activity (% of control) (CaMKI): 117 % of control | Kinase activity (% of control) (Tie2): 88 % of control | Kinase activity (% of control) (SGK): 72 % of control | Kinase activity (% of control) (Ron): 111 % of control | Kinase activity (% of control) (KDR): 90 % of control | Kinase activity (% of control) (CHK1): 74 % of control | Kinase activity (% of control) (Src(1-530)): 99 % of control | Kinase activity (% of control) (Lck activated): 89 % of control | Kinase activity (% of control) (AMPK α1): 101 % of control | Kinase activity (% of control) (Itk): 106 % of control | Kinase activity (% of control) (DYRK2): 102 % of control
